Test results as given in paper PMC12639566, “Identification of antimalarial drugs and bradykinin as ligands of the Plasmodium membrane protein PfSR10” (iScience, 2025).

Legend:
[1] = target: T1, PfSR10 (Plasmodium falciparum, UniProt Q8I5P8); test: FlAsH-BRET assay of PfSR10 extracellular conformational changes; type: cell-based; settings: for ECL3 movement relative to the PfSR10 N-terminus, S6 sensor: S6 (site 6) sensor site; for ECL1 movement relative to the PfSR10 N-terminus: concentration-dependent
Method: To characterize the binding properties of different ligands (CQ, DHA, PIP-TT, PQ, bradykinin or des-Arg9-bradykinin) to PfSR10, a FlAsH BRET assay was performed as previously described.[29]^,[32]^,[49] We seeded HEK293 cells or COS-7 cells in 6-well plate were transfected with PfSR10 FlAsH BRET sensors (S1 to S6 as indicated in Figure 4B) and incubated for 48 h at 37°C in 5% CO2. The overexpressed PfSR10 sensors cells were washed with FlAsH BRET buffer (25 mM HEPES, 1 mM CaCl2, 140 mM NaCl, 2.7 mM KCl, 0.9 mM MgCl2, 0.37 mM NaH2PO4, 5.5 mM D-glucose, 12 mM NaHCO3) and incubated with 2.5 μM FlLAsH EDT2 (pre-diluted in FLAsH BRET buffer) for 40min at 37°C in 5% CO2. The cells were washed twice, resuspended with FlAsH BRET buffer, and seeded into a 96-well plate at a density of 5x10^4 per well. After adding increasing concentrations of ligand (CQ, DHA, PIP-TT, PQ, bradykinin or des-Arg9-bradykinin) together with luciferase substrate coelenterazine-h (5 μM), the BRET signals between Nluc (440-480 nm) and FlAsH fluorescent moiety (525-585 nm) emissions were examined by a Mithras LB 940 Multimode Microplate Reader.

[2] = target: T1, PfSR10; test: GloSensor-cAMP assay, inhibition of forskolin-induced cAMP in PfSR10-overexpressing HEK293 cells; type: cell-based
Method: (§1) To examine the constitutive activity of PfSR10, we transfected HEK293 cells with different concentrations of the receptor, including PfSR10, ADGRG2, ADGRG3. For measuring the anti-malarial drugs, bradykinin or des-Arg9-bradykinin-induced inhibition of forskolin-stimulated cAMP level in HEK293 cells or COS-7 cells, the receptor encoding plasmid (PfSR10 or its mutants) or empty plasmid (pcDNA3.1) was co-transfected with the GloSensor plasmid and incubated in an incubator at 37°C with 5% CO2 for 24 h. The transfected cells were then inoculated on 96-well plates (at a density of 4 × 10^4 / well) and incubated in incubators under the same conditions for another 24 hours. Cells were precultured with serum-free medium (Gibco) containing 5% DILUTED GloSensor™cAMP reagent Reserve solution (Progema) for 2 h. The base cAMP signal was directly measured using a multimode tablet reader (PerkinElmer Envision). At the same time, the cAMP signal induced by DHA, PIP-TT, PQ, CQ bradykinin or des-Arg9-bradykinin was detected after adding agonists into the corresponding Wells. Finally, the s-shaped dose response function in GraphPad Prism 7.0 was used to analyze the data.

[3] = target: T1, PfSR10; test: Gi1-Gγ dissociation BRET assay in PfSR10-overexpressing HEK293 cells; type: cell-based; settings: for Gi1 coupling with PfSR10 (in words): G protein dissociation assay
From the text: (§2) To characterize the G protein signalling properties of PfSR10, G protein BRET probes were generated according to previous publication.[50] The Gqo BRET probes were generated by replacing the six amino acids of the C- terminus of Gq -RlucII with those from GoA1, creating a chimeric Gqo-RlucII subunit.[51] HEK293 cells or COS-7 cells were co-transfected with PfSR10 and various G protein probes (Gi, Gq and Gqo). Forty-eight hours post-transfection, cells were washed twice with HBSS, resuspended with HBSS buffer, and seeded into a 96-well plate at a density of 5x10^4 per well. After adding increasing concentrations of ligand (CQ, DHA, PIP-TT, PQ, Bradykinin, des-Arg9-bradykinin, bradykinin-Arg-FITC, FITC-bradykinin) together with luciferase substrate coelenterazine 400a (5 μM, Cayman), the BRET signals between […] (440-480 nm) and GFP2 (510 nm) emissions were examined by a Mithras LB 940 Multimode Microplate Reader (Berthold Technologies). The BRET signal was calculated as the ratio of the GFP2 emission to Nluc emission.

[4] = target: T1, PfSR10; test: Gq-Gγ dissociation BRET assay in PfSR10-overexpressing HEK293 cells; type: cell-based
From the text: as §2

[5] = tested on: Plasmodium falciparum; test: IP3 ELISA in isolated parasites at trophozoite stage; type: cell-based; settings: 10 μM DHA, 1 h, compared with untreated group
Method: To measure the IP3 levels in the Plasmodium falciparum. P. falciparum parasites were collected as described above. In brief, after 1 h-treatment 1h with 10 μM of DHA, P. falciparum parasites were isolated at the trophozoite stage and washed twice with PBS. Then P. falciparum parasites were disrupted repeatedly by freeze-thaw, sedimented by centrifugation at 600 g for 10 min at 4°C. The supernatant was collected and IP3 levels were determined using IP3 ELISA Kit (Hengyuan Biotechnology, Shanghai) according to manufacturer’s instructions.

[6] = tested on: Plasmodium falciparum; test: cAMP ELISA in isolated parasites at trophozoite stage stimulated with Fsk; type: cell-based; settings: 10 μM DHA, 3 μM Fsk, compared with untreated group
Method: For determination of the cAMP levels in the Plasmodium falciparum, P. falciparum-infected human erythrocyte s at trophozoite stage, synchronized with sorbitol as previously described.[47] The P. falciparum-infected cells were subject to the 10 μM DHA treatment or not for 1 h after synchronization in the presence of 3 μM of Fsk. P. falciparum parasites were isolated at the trophozoite stage.[48] P. falciparum parasites were washed twice with PBS and resuspended at a concentration of 5×10^6 cells/ml^-1 in the same buffer and incubated for 15 min with 10 μM DHA in the presence 300 nM IBMX to prevent cAMP degradation. After treatment, P. falciparum parasites were disrupted repeatedly by freeze-thaw, sedimented by centrifugation at 600 g for 10 min at 4°C and the supernatant was collected and subjected to cAMP measurement using cAMP ELISA Kit (R&D systems) according to manufacturer’s instructions.

[7] = target: T2, PbSR10 (Plasmodium berghei, UniProt A0A509AUP3); test: GloSensor-cAMP assay in HEK293 cells overexpressing PbSR10; type: cell-based
[8] = target: PcSR10 (Plasmodium chabaudi, UniProt A0A4V0KCI5); test: GloSensor-cAMP assay in HEK293 cells overexpressing PcSR10; type: cell-based
[9] = target: PySR10 (Plasmodium yoelii, UniProt V7PQD6); test: GloSensor-cAMP assay in HEK293 cells overexpressing PySR10; type: cell-based
[10] = tested on: SR10; test: GloSensor-cAMP assay in HEK293 cells overexpressing P. vivax SR10; type: cell-based; settings: one of the two other Plasmodium species
[11] = tested on: SR10; test: GloSensor-cAMP assay in HEK293 cells overexpressing P. knowlesi SR10; type: cell-based; settings: one of the two other Plasmodium species
[12] = tested on: PfSR10 mutants; test: GloSensor-cAMP assay with site-directed PfSR10 mutants; type: cell-based, Plasmodium falciparum
Method: as §1

[13] = target: T2, PbSR10; test: Gi protein trimer dissociation assay in HEK293 cells overexpressing PbSR10; type: cell-based
[14] = HEK293 cells overexpressing PfSR10, mean ± SEM

T1 sequence (Q8I5P8 entry or part of it): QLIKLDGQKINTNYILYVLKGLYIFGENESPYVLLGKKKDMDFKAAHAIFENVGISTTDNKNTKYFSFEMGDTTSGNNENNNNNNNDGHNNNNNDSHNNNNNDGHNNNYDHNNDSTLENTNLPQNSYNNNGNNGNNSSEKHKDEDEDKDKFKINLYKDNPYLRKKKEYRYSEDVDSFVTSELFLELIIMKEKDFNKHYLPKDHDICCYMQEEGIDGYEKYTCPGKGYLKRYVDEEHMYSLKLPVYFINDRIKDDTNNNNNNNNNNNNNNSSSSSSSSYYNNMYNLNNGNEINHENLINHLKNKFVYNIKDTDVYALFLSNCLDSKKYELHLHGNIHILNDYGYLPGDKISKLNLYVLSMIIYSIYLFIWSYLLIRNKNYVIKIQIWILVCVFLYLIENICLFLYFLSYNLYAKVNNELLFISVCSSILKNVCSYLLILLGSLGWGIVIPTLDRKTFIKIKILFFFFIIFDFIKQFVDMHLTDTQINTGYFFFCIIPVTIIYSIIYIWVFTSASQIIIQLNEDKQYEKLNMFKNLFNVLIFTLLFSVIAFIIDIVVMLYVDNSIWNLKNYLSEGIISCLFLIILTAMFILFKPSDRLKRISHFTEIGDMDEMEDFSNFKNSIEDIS
T2 sequence (A0A509AUP3 entry or part of it): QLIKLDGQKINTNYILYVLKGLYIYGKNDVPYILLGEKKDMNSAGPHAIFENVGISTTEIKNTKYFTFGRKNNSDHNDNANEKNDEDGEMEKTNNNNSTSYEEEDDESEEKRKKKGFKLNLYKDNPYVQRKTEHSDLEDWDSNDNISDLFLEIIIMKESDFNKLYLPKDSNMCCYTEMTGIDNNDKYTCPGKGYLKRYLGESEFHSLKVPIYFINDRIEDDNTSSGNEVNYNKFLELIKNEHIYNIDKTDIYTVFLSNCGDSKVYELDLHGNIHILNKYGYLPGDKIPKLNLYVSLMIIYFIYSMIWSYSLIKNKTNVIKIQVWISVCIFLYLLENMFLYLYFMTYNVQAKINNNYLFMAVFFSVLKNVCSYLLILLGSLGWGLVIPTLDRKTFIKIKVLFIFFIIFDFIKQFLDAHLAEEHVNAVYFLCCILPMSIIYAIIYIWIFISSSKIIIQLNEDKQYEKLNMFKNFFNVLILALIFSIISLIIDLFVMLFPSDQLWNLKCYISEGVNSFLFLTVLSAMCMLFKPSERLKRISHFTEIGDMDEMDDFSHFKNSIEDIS
PcSR10, sequence (A0A4V0KCI5 entry or part of it): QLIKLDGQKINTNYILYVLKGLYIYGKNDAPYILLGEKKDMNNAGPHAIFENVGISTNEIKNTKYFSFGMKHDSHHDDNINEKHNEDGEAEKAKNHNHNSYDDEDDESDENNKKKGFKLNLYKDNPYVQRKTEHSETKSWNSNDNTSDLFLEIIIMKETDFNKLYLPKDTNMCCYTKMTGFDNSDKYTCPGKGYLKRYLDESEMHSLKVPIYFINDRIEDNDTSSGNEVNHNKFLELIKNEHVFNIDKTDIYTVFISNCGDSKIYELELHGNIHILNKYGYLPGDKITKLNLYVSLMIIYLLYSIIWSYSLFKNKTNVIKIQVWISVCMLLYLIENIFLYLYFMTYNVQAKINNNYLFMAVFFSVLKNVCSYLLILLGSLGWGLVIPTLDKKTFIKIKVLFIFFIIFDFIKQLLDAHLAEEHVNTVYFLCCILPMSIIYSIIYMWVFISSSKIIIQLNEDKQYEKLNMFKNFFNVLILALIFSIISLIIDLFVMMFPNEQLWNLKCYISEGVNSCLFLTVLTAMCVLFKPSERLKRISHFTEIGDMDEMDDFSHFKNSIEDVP
PySR10, sequence (V7PQD6 entry or part of it): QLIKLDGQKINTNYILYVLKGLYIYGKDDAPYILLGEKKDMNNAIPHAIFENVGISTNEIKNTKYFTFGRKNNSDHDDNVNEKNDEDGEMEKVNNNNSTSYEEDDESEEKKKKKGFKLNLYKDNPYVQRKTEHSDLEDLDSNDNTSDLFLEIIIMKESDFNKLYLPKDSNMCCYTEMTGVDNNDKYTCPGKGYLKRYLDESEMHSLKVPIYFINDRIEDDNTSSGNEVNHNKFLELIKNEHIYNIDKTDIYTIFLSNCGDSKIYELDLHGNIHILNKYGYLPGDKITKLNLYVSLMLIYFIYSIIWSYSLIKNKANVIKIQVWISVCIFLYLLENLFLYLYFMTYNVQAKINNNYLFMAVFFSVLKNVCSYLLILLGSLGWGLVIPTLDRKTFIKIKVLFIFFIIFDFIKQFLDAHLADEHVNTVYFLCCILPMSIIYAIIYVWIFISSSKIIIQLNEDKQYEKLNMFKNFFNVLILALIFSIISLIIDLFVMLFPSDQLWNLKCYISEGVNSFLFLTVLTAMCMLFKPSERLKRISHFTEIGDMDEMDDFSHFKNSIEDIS

O=C1C(O)=C([C@H]2CC[C@H](c3ccc(Cl)cc3)CC2)C(=O)c2ccccc21 [ATO, atovaquone]
extracellular conformational changes in PfSR10 [1]: did not induce detectable extracellular conformational changes

CCN(CC)CCCC(C)Nc1ccnc2cc(Cl)ccc12 (stereo not shown) [CQ, chloroquine]
EC50 [2]: 36.6 ± 2.97 nM | cAMP inhibition Emax [2, 14]: 0.958 ± 0.03 × 10^3 | EC50 [3]: 0.75 ± 0.06 nM | Gi1 coupling with PfSR10 (in words) [3]: promoted Gi1 coupling with PfSR10 | ECL3 movement relative to the PfSR10 N-terminus, S6 sensor [1]: separation of ECL3 from the PfSR10 N-terminus | ECL1 movement relative to the PfSR10 N-terminus [1]: inward movement of ECL1 toward the PfSR10 N-terminus

C[C@H]1[C@@H](O)O[C@@H]2O[C@@]3(C)CC[C@H]4[C@H](C)CC[C@@H]1[C@@]24OO3 [DHA, dihydroartemisinin]
EC50 [2]: 3.94 ± 1.6 nM | cAMP inhibition Emax [2, 14]: 1.136 ± 0.06 × 10^3 | EC50 [4]: 2 ± 0.1 nM | IP3 concentration in the malaria parasite [5]: significantly increased | Fsk-stimulated cAMP in the malaria parasite [6]: inhibited | ECL1 movement relative to the PfSR10 N-terminus [1]: inward movement of ECL1 toward the PfSR10 N-terminus | EC50 [7]: 12.3 ± 4.75 nM | EC50 [8]: 37.6 ± 15.5 nM | EC50 [9]: 36.6 ± 6.78 nM | cAMP response via SR10 of P. vivax [10]: no response | cAMP response via SR10 of P. knowlesi [11]: no response | effect of mutation on DHA potency, PfSR10 C454F ([12]; mutant C454F vs wild type): minimal effects | effect of mutation on DHA-induced cAMP inhibition, PfSR10 L587M ([12]; mutant L587M vs wild type): significantly impaired | effect of mutation on DHA-induced cAMP inhibition, PfSR10 N595S ([12]; mutant N595S vs wild type): significantly impaired | effect of mutation on DHA-induced cAMP inhibition, PfSR10 T513A ([12]; mutant T513A vs wild type): significantly impaired | effect of mutation on DHA potency, PfSR10 T528S ([12]; mutant T528S vs wild type): minimal effects | Gi dissociation downstream of PbSR10 [13]: promoted Gi dissociation

Clc1ccc2c(N3CCN(CCCN4CCN(c5ccnc6cc(Cl)ccc56)CC4)CC3)ccnc2c1.O=P(O)(O)O [PIP-TT, piperaquine-tetraphosphate-tetrahydrate]
cAMP inhibition Emax [2, 14]: 1.070 ± 0.09 × 10^3 | EC50 ([2]; inhibition of Fsk-induced cAMP elevation, HEK293 cells overexpressing PfSR10, mean ± SEM, n=3, read-out: cAMP inhibition EC50): 0.4 ± 0.12 nM | Gi1 coupling with PfSR10 (in words) [3]: promoted Gi1 coupling with PfSR10 | Gi1-dissociation Emax [3, 14]: -13.00 ± 1.00 × 10^-3 | EC50 ([3]; HEK293 cells overexpressing PfSR10, mean ± SEM, read-out: Gi1-dissociation EC50): 9.18 ± 5.23 nM | ECL3 movement relative to the PfSR10 N-terminus, S6 sensor [1]: separation of ECL3 from the PfSR10 N-terminus | ECL1 movement relative to the PfSR10 N-terminus [1]: inward movement of ECL1 toward the PfSR10 N-terminus
